Measurements taken from the supplement of paper PMC10307832.

Assays:
Assay in all cases: relative viability (nuclei count vs DMSO), 5 days (fraction); higher = more cells survive
VE-821 + Pictilisib = compound: CS(=O)(=O)c1ccc(-c2cnc(N)c(C(=O)Nc3ccccc3)n2)cc1 [VE-821] + CS(=O)(=O)N1CCN(Cc2cc3nc(-c4cccc5[nH]ncc45)nc(N4CCOCC4)c3s2)CC1 [Pictilisib] (partner 1 µM)
Method in brief: (§1)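 Relative viability was taken as the ratio of nuclei in treated wells to nuclei in vehicle wells. Lung cancer cell lines in 1536-well plates received compounds by pin tool one day after seeding, either one drug alone or a fixed anchor-drug dose plus five library-drug doses (not always all listed) in √10 steps. Nuclei were counted on 4× images after 5 days of treatment, and values are medians of duplicate plates.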

Vismodegib + Pictilisib = compound: CS(=O)(=O)c1ccc(C(=O)Nc2ccc(Cl)c(-c3ccccn3)c2)c(Cl)c1 [Vismodegib] + CS(=O)(=O)N1CCN(Cc2cc3nc(-c4cccc5[nH]ncc45)nc(N4CCOCC4)c3s2)CC1 [Pictilisib] (partner 1 µM)
Method in brief: as §1

Ruxolitinib + Tozasertib = compound: N#CC[C@H](C1CCCC1)n1cc(-c2ncnc3[nH]ccc23)cn1 [Ruxolitinib] + Cc1cc(Nc2cc(N3CCN(C)CC3)nc(Sc3ccc(NC(=O)C4CC4)cc3)n2)n[nH]1 [Tozasertib] (partner 0.1 µM)
Method in brief: as §1

Vismodegib + Trametinib = compound: CS(=O)(=O)c1ccc(C(=O)Nc2ccc(Cl)c(-c3ccccn3)c2)c(Cl)c1 [Vismodegib] + CC(=O)Nc1cccc(-n2c(=O)n(C3CC3)c(=O)c3c(Nc4ccc(I)cc4F)n(C)c(=O)c(C)c32)c1 [Trametinib] (partner 0.02 µM)
Method in brief: as §1

Cell Line UMC-11 has a relative viability (VE-821 + Pictilisib; first compound 0.08 µM) of 0.933, a relative viability (VE-821 + Pictilisib; first compound 0.253 µM) of 0.781 and a relative viability (VE-821 + Pictilisib; first compound 0.8 µM) of 0.613. The relative viability (VE-821 + Pictilisib; first compound 2.53 µM) was 0.84, the relative viability (VE-821 + Pictilisib; first compound 8 µM) was 0.4 and the relative viability (Vismodegib + Pictilisib; first compound 0.08 µM) was 0.727. For the same cell line, the relative viability (Vismodegib + Pictilisib; first compound 0.253 µM) was 0.703, the relative viability (Vismodegib + Pictilisib; first compound 0.8 µM) was 0.738 and the relative viability (Vismodegib + Pictilisib; first compound 2.53 µM) was 0.75. It also gave a relative viability (Vismodegib + Pictilisib; first compound 8 µM) of 0.271, a relative viability (Ruxolitinib + Tozasertib; first compound 0.08 µM) of 0.206 and a relative viability (Ruxolitinib + Tozasertib; first compound 0.253 µM) of 0.206. For the same cell line, the relative viability (Ruxolitinib + Tozasertib; first compound 0.8 µM) was 0.203, the relative viability (Ruxolitinib + Tozasertib; first compound 2.53 µM) was 0.214 and the relative viability (Ruxolitinib + Tozasertib; first compound 8 µM) was 0.2. The relative viability (Vismodegib + Trametinib; first compound 0.08 µM) was 0.422, the relative viability (Vismodegib + Trametinib; first compound 0.253 µM) was 0.669 and the relative viability (Vismodegib + Trametinib; first compound 0.8 µM) was 0.609. It also gave a relative viability (Vismodegib + Trametinib; first compound 2.53 µM) of 0.618 and a relative viability (Vismodegib + Trametinib; first compound 8 µM) of 0.375.
